Drawing on patent US6756373B1, “Pharmaceutically active compounds” (Pfizer Inc., priority 1999, dated 2004), this text covers melting point for 13 compounds.

Each structure is given as a SMILES string.

For `CCCOc1ncc(I)cc1-c1nc2c(CC)nn(CCN3CCOCC3)c2c(=O)[nH]1` [Example 95, 3-Ethyl-5-(5-iodo-2-propoxy-3-pyridinyl)-1-[2-(4-morpholinyl)ethyl]-1,6-dihydro-7H-pyrazolo[4,3-d]pyrimidin-7-one], the melting point was in the range of 175 to 177 °C.
As to `CCc1c2nc(-c3cc(C(C)=O)cnc3OCC(C)C)[nH]c(=O)c2nn1C1CCN(C)CC1` [Example 135, 5-(5-Acetyl-2-isobutoxy-3-pyridinyl)-3-ethyl-2-(1-methyl-4-piperidinyl)-2,6-dihydro-7H-pyrazolo[4,3-d]pyrimidin-7-one], the melting point was in the range of 195 to 196 °C.
In turn, `CCOc1ncc(C(C)=O)cc1-c1nc2c(CC)nn(Cc3nccn3C)c2c(=O)[nH]1` [Example 138, 5-(5-Acetyl-2-ethoxy-3-pyridinyl)-3-ethyl-1-[(1-methyl-1H-imidazol-2-yl)methyl]-1,6-dihydro-7H -pyrazolo[4,3-d]pyrimidin-7-one] returned a melting point of 217.9 to 218.7 °C.
For the compound `CCCc1nn(C)c2c(=O)[nH]c(-c3cc(N)cnc3OC3CCC3)nc12` [Example 90, 5-[5-Amino-2-(cyclobutyloxy)-3-pyridinyl]-1-methyl-3-propyl-1,6-dihydro-7H-pyrazolo[4,3-d]pyrimidin-7-one], the melting point lay within 185 to 185.5 °C.
The result for `CCOc1ncc(C(C)=O)cc1-c1nc2c(CC)n(CC3CC3)nc2c(=O)[nH]1` [Example 128] reads 200 to 201 °C; that for `CCCOc1ncc(C#N)cc1-c1nc2c(CCC)nn(C)c2c(=O)[nH]1` [Example 70, 5-(1-Methyl-7-oxo-3-propyl-6,7-dihydro-1-pyrazolo[4,3-d]pyrimidin-5-yl)-6-propoxynicotinonitrile], 174 to 176 °C.
The result for `CCCOc1ncc(I)cc1-c1nc2c(CC)n(Cc3ccccn3)nc2c(=O)[nH]1` [Example 98, 5-(2-Propoxy-5-iodo-3-pyridinyl)-3-ethyl-2-(2-pyridinylmethyl)-2,6-dihydro-7H-pyrazolo[4,3-d]pyrimidin-7-one] reads 228.9 to 233.8 °C.
The result for `CCCOc1ncc(C(C)=O)cc1-c1nc2c(CC)n(C3CN(C(C)CC)C3)nc2c(=O)[nH]1` (stereo not shown) [Example 123, 5-(5-Acetyl-2-propoxy-3-pyridinyl)-2-(1-sec-butyl-3-azetidinyl)-3-ethyl-2,6-dihydro-7H-pyrazolo[4,3-d]pyrimidin-7-one] reads 176.5 to 177.7 °C; that for `CCCOc1ncc(C(C)=O)cc1-c1nc2c(CC)n(C3CCN(C)CC3)nc2c(=O)[nH]1` [Example 125, 5-(5-Acetyl-2-propoxy-3-pyridinyl)-3-ethyl-2-(1-methyl-4-piperidinyl)-2,6-dihydro-7H-pyrazolo[4,3-d]pyrimidin-7-one], 219 to 220 °C; that for `CCCOc1ncc(NC(C)=O)cc1-c1nc2c(CCC)nn(C)c2c(=O)[nH]1` [Example 92, N-[6-(Propoxy)-5-(1-methyl-7-oxo-3-propyl-6,7-dihydro-1H-pyrazolo[4,3-d]pyrimidin-5-yl)-3-pyridinyl]acetamide], 252 to 253 °C.
`CCCOc1ncc(NC(=O)N(C)C)cc1-c1nc2c(CCC)nn(C)c2c(=O)[nH]1` [Example 91, N′-[6-(Propoxy)-5-(1-methyl-7-oxo-3-propyl-6,7-dihydro-1H-pyrazolo[4,3-d]pyrimidin-5-yl)-3-pyridinyl]-N,N-dimethylurea] yielded a melting point of 219 to 220 °C.
Under `CCCCOc1ncc(C(C)=O)cc1-c1nc2c(CC)n(C3CCN(C(=O)OC(C)(C)C)CC3)nc2c(=O)[nH]1` [Example 129, tert-Butyl 4-[5-(5-Acetyl-2-butoxy-3-pyridinyl)-3-ethyl-7-oxo-6,7-dihydro-2H-pyrazolo[4,3-d]pyrimidin-2-yl]-1-piperidinecarboxylate] stands 194 to 195 °C; under `CCCOc1ncc(N(C)C)cc1-c1nc2c(CCC)nn(C)c2c(=O)[nH]1` [Example 93, 5-[5-(Dimethylamino)-2-propoxy-3-pyridinyl]-1-methyl-3-propyl-1,6-dihydro-7H-pyrazolo[4,3-d]pyrimidin-7-one], 162 to 162.5 °C.
